Results published in PubChem BioAssay (NCI).
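Compound exposure: 48 hours, 5 concentrations, 96-well plates. Abbreviation: GI50, concentration required for 50% inhibition of growth. At the TGI there is no net growth.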

What was measured:
Assay in all cases: NCI-60 cell line screen, 48 h
SK-MEL-28 melanoma = tested on: SK-MEL-28 melanoma
T-47D breast = tested on: T-47D breast
COLO 205 colon = tested on: COLO 205 colon
MDA-MB-231 breast = tested on: MDA-MB-231 breast
K-562 leukemia = tested on: K-562 leukemia
TK-10 renal = tested on: TK-10 renal
SNB-19 CNS = tested on: SNB-19 CNS
EKVX NSCLC = tested on: EKVX NSCLC
SF-295 CNS = tested on: SF-295 CNS
SR leukemia = tested on: SR leukemia
A498 renal = tested on: A498 renal
NCI/ADR-RES ovarian = tested on: NCI/ADR-RES ovarian
SK-MEL-2 melanoma = tested on: SK-MEL-2 melanoma
PC-3 prostate = tested on: PC-3 prostate
HT29 colon = tested on: HT29 colon
KM12 colon = tested on: KM12 colon
MOLT-4 leukemia = tested on: MOLT-4 leukemia
NCI-H460 lung = tested on: NCI-H460 lung
OVCAR-3 ovarian = tested on: OVCAR-3 ovarian
SK-MEL-5 melanoma = tested on: SK-MEL-5 melanoma
BT-549 breast = tested on: BT-549 breast
HL-60(TB) leukemia = tested on: HL-60(TB) leukemia
SW-620 colon = tested on: SW-620 colon
U251 CNS = tested on: U251 CNS
SK-OV-3 ovarian = tested on: SK-OV-3 ovarian
HCC-2998 colon = tested on: HCC-2998 colon
786-0 renal = tested on: 786-0 renal
RPMI-8226 leukemia = tested on: RPMI-8226 leukemia
NCI-H23 lung = tested on: NCI-H23 lung
CAKI-1 renal = tested on: CAKI-1 renal
UACC-257 melanoma = tested on: UACC-257 melanoma
SN12C renal = tested on: SN12C renal
OVCAR-4 ovarian = tested on: OVCAR-4 ovarian
CCRF-CEM leukemia = tested on: CCRF-CEM leukemia
OVCAR-8 ovarian = tested on: OVCAR-8 ovarian
HCT-116 colon = tested on: HCT-116 colon
SF-539 CNS = tested on: SF-539 CNS
LOX IMVI melanoma = tested on: LOX IMVI melanoma
UACC-62 melanoma = tested on: UACC-62 melanoma
UO-31 renal = tested on: UO-31 renal
SF-268 CNS = tested on: SF-268 CNS
HS 578T breast = tested on: HS 578T breast
ACHN renal = tested on: ACHN renal
HOP-92 NSCLC = tested on: HOP-92 NSCLC
RXF 393 renal = tested on: RXF 393 renal
MALME-3M melanoma = tested on: MALME-3M melanoma
NCI-H522 lung = tested on: NCI-H522 lung
DU-145 prostate = tested on: DU-145 prostate
OVCAR-5 ovarian = tested on: OVCAR-5 ovarian
NCI-H226 lung = tested on: NCI-H226 lung
MCF7 breast = tested on: MCF7 breast
M14 melanoma = tested on: M14 melanoma
A549 NSCLC = tested on: A549 NSCLC
SNB-75 CNS = tested on: SNB-75 CNS
HCT-15 colon = tested on: HCT-15 colon
HOP-62 NSCLC = tested on: HOP-62 NSCLC
MDA-MB-435 = tested on: MDA-MB-435
IGROV1 ovarian = tested on: IGROV1 ovarian

`NS(=O)(=O)c1cccc(-c2ccc3c(NC(=O)C4CC4)n[nH]c3c2)c1` gave a GI50 (SK-MEL-28 melanoma) of 15.7 µM, a TGI (SK-MEL-28 melanoma) greater than 25 µM and a GI50 (T-47D breast) of 13.3 µM. The TGI (T-47D breast) was greater than 25 µM, the GI50 (COLO 205 colon) was greater than 14.5 µM and the TGI (COLO 205 colon) was greater than 22.9 µM. The GI50 (MDA-MB-231 breast) was 25 µM, the TGI (MDA-MB-231 breast) was greater than 25 µM and the GI50 (K-562 leukemia) was 8.38 µM. For the same molecule, the TGI (K-562 leukemia) was greater than 25 µM, the GI50 (TK-10 renal) was greater than 25 µM and the TGI (TK-10 renal) was greater than 25 µM. It also gave a GI50 (SNB-19 CNS) of 20.4 µM, a TGI (SNB-19 CNS) greater than 25 µM and a GI50 (EKVX NSCLC) greater than 25 µM. For the same molecule, the TGI (EKVX NSCLC) was greater than 25 µM, the GI50 (SF-295 CNS) was greater than 25 µM and the TGI (SF-295 CNS) was greater than 25 µM. For the same molecule, the GI50 (SR leukemia) was 3.59 µM, the TGI (SR leukemia) was greater than 25 µM and the GI50 (A498 renal) was greater than 19.8 µM. The TGI (A498 renal) was greater than 25 µM, the GI50 (NCI/ADR-RES ovarian) was greater than 25 µM and the TGI (NCI/ADR-RES ovarian) was greater than 25 µM. It also gave a GI50 (SK-MEL-2 melanoma) of 8.78 µM, a TGI (SK-MEL-2 melanoma) of 24.9 µM and a GI50 (PC-3 prostate) of 15.6 µM. It also gave a TGI (PC-3 prostate) greater than 25 µM, a GI50 (HT29 colon) greater than 14.4 µM and a TGI (HT29 colon) greater than 25 µM. For the same molecule, the GI50 (KM12 colon) was 11.3 µM, the TGI (KM12 colon) was greater than 25 µM and the GI50 (MOLT-4 leukemia) was 19.2 µM. For the same molecule, the TGI (MOLT-4 leukemia) was greater than 25 µM, the GI50 (NCI-H460 lung) was greater than 16.4 µM and the TGI (NCI-H460 lung) was greater than 25 µM. It also gave a GI50 (OVCAR-3 ovarian) of 6.71 µM, a TGI (OVCAR-3 ovarian) greater than 17.6 µM and a GI50 (SK-MEL-5 melanoma) greater than 14.7 µM. For the same molecule, the TGI (SK-MEL-5 melanoma) was greater than 25 µM, the GI50 (BT-549 breast) was greater than 21 µM and the TGI (BT-549 breast) was greater than 25 µM. It also gave a GI50 (HL-60(TB) leukemia) of 8.31 µM, a TGI (HL-60(TB) leukemia) greater than 22.5 µM and a GI50 (SW-620 colon) greater than 15.1 µM. The TGI (SW-620 colon) was greater than 25 µM, the GI50 (U251 CNS) was 12.8 µM and the TGI (U251 CNS) was greater than 25 µM. It also gave a GI50 (SK-OV-3 ovarian) of 9.16 µM, a TGI (SK-OV-3 ovarian) of 23.6 µM and a GI50 (HCC-2998 colon) greater than 22.1 µM. It also gave a TGI (HCC-2998 colon) greater than 25 µM, a GI50 (786-0 renal) of 24.3 µM and a TGI (786-0 renal) greater than 25 µM. For the same molecule, the GI50 (RPMI-8226 leukemia) was greater than 25 µM, the TGI (RPMI-8226 leukemia) was greater than 25 µM and the GI50 (NCI-H23 lung) was greater than 25 µM. The TGI (NCI-H23 lung) was greater than 25 µM, the GI50 (CAKI-1 renal) was greater than 25 µM and the TGI (CAKI-1 renal) was greater than 25 µM. It also gave a GI50 (UACC-257 melanoma) greater than 18.1 µM, a TGI (UACC-257 melanoma) greater than 25 µM and a GI50 (SN12C renal) greater than 21.1 µM. It also gave a TGI (SN12C renal) greater than 25 µM, a GI50 (OVCAR-4 ovarian) of 16.7 µM and a TGI (OVCAR-4 ovarian) greater than 25 µM. The GI50 (CCRF-CEM leukemia) was 8.51 µM, the TGI (CCRF-CEM leukemia) was greater than 25 µM and the GI50 (OVCAR-8 ovarian) was 24.3 µM. It also gave a TGI (OVCAR-8 ovarian) greater than 25 µM, a GI50 (HCT-116 colon) greater than 16.9 µM and a TGI (HCT-116 colon) greater than 25 µM. The GI50 (SF-539 CNS) was 14.3 µM, the TGI (SF-539 CNS) was greater than 25 µM and the GI50 (LOX IMVI melanoma) was 19.4 µM. It also gave a TGI (LOX IMVI melanoma) greater than 25 µM, a GI50 (UACC-62 melanoma) of 15.7 µM and a TGI (UACC-62 melanoma) greater than 25 µM. It also gave a GI50 (UO-31 renal) greater than 25 µM, a TGI (UO-31 renal) greater than 25 µM and a GI50 (SF-268 CNS) greater than 21.6 µM. For the same molecule, the TGI (SF-268 CNS) was greater than 25 µM, the GI50 (HS 578T breast) was 9.6 µM and the TGI (HS 578T breast) was greater than 25 µM. For the same molecule, the GI50 (ACHN renal) was greater than 25 µM, the TGI (ACHN renal) was greater than 25 µM and the GI50 (HOP-92 NSCLC) was greater than 25 µM. The TGI (HOP-92 NSCLC) was greater than 25 µM, the GI50 (RXF 393 renal) was greater than 15 µM and the TGI (RXF 393 renal) was greater than 25 µM. It also gave a GI50 (MALME-3M melanoma) greater than 19.8 µM, a TGI (MALME-3M melanoma) greater than 25 µM and a GI50 (NCI-H522 lung) of 5.32 µM. It also gave a TGI (NCI-H522 lung) greater than 19 µM, a GI50 (DU-145 prostate) of 14.7 µM and a TGI (DU-145 prostate) greater than 25 µM. It also gave a GI50 (OVCAR-5 ovarian) greater than 25 µM, a TGI (OVCAR-5 ovarian) greater than 25 µM and a GI50 (NCI-H226 lung) greater than 15.1 µM. It also gave a TGI (NCI-H226 lung) greater than 25 µM, a GI50 (MCF7 breast) greater than 13.3 µM and a TGI (MCF7 breast) greater than 24.1 µM. It also gave a GI50 (M14 melanoma) of 12.3 µM, a TGI (M14 melanoma) greater than 25 µM and a GI50 (A549 NSCLC) greater than 25 µM. It also gave a TGI (A549 NSCLC) greater than 25 µM, a GI50 (SNB-75 CNS) greater than 13.8 µM and a TGI (SNB-75 CNS) greater than 25 µM. It also gave a GI50 (HCT-15 colon) greater than 25 µM, a TGI (HCT-15 colon) greater than 25 µM and a GI50 (HOP-62 NSCLC) greater than 14.2 µM. For the same molecule, the TGI (HOP-62 NSCLC) was 24.7 µM, the GI50 (MDA-MB-435) was 5.31 µM and the TGI (MDA-MB-435) was 15.3 µM. It also gave a GI50 (IGROV1 ovarian) greater than 25 µM and a TGI (IGROV1 ovarian) greater than 25 µM.
